Test results as given in patent US8637461B2, “Method of diagnosing and treating oxidative stress-impaired wound healing” (Kuwait University, priority 2011, dated 2014).

Legend:
IRS-1 = IRS-1 Tyr612 phosphorylation, immunoprecipitation/western blotting in dermal fibroblasts; format: cell-based, rat
Description: (§1) Primary dermal fibroblasts were obtained from dorsal skin of female Goto Kakizaki (GK, age 12-15 months) rats, a model for non-obese type 2 diabetes, and their Wistar control counterparts. After sterilization in povidine solution, rat skin was washed in sterile water and rinsed in 70% ethanol in PBS. Epidermis and dermis were separated following overnight incubation in 0.25% trypsine/EDTA at 4 C. Dermis was cut into small pieces and incubated in Dulbecco's modified Eagle medium (DMEM; Invitrogen) containing collagenase (250 U/ml; Sigma) for thirty min at 37 C in 5% CO2 with constant agitation. The sections were triturated vigorously to release fibroblasts, which were collected by centrifugation. The cell pellet was washed two times with PBS, re-suspended in complete medium (DMEM supplemented with 10% fetal calf serum, penicillin (100 U/ml), streptomycin (100 μg/ml)), 2 mM L-glutamine and 10 mM HEPES) and then cultured under a standard condition.
A hypercortisolemic state was mimicked by exposing control fibroblasts to dexamethasone (Dexa, Sigma) administered at 20 ng/ml every other day for a duration of 8 days. Similarly, the state of low-grade inflammation in fibroblasts was recapitulated experimentally by exposing these cells to TNF-α (4 ng/ml every day for 4 days). […] The concentration of IGF-1 (50 ng/ml, Peprotech) was determined by prior dose response experiment.
Levels/activities of key intracellular molecules in the IGF-1 signaling cascade including IRS-1, IRS-1 Tyr-p-612, PI3K-p85α, IRS-1 Ser-p (307), PI3K, Akt, p-Akt, INK and p-JNK were assessed using western blotting/immunoprecipitation and commercially available ELISA-based assays.
Ice-cold radioimmunoprecipitation assay (RIPA) buffer was used for the extraction of proteins from fibroblasts. Immunoprecipitation was achieved by incubating cell homogenates with anti-IRS-1 antibody overnight at 4° C. followed by the addition of protein A/G-Agarose for additional two hours. Immunoprecipitates were separated using spin-collection filters (Cytosignal), washed once with RIPA buffer/3× with PBS and then elutated by the addition of Laemmli buffer. […] Antigen-antibody complexes were visualized by an enhanced chemiluminescence system on BioMax Light Film (Kodack) and then the densitometry was analyzed using Quantity One 1-D image software (BioRad, GS 800). All densitometry data were corrected for equal loading using the house keeping gene β-actin and they were expressed as fold change vs. control.

Akt = Akt phosphorylation, western blotting in dermal fibroblasts; format: cell-based, rat; conditions: diabetic, TNF-α- or dexamethasone-exposed cells; EUK-134; western blot
Description: as §1, with “The cell pellet was washed two times with PBS, re-suspended in complete medium (DMEM supplemented with 10% fetal calf serum, penicillin (100 U/ml), streptomycin (100 μg/ml)), 2 mM L-glutamine and 10 mM HEPES) and then cultured under a standard condition.” left out
A hypercortisolemic state was mimicked by exposing control fibroblasts to dexamethasone (Dexa, Sigma) administered at 20 ng/ml every other day for a duration of 8 days. […] The concentration of IGF-1 (50 ng/ml, Peprotech) was determined by prior dose response experiment.
Levels/activities of key intracellular molecules in the IGF-1 signaling cascade including IRS-1, IRS-1 Tyr-p-612, PI3K-p85α, IRS-1 Ser-p (307), PI3K, Akt, p-Akt, INK and p-JNK were assessed using western blotting/immunoprecipitation and commercially available ELISA-based assays. […]

cultured fibroblasts = test: WST-based cell viability of cultured fibroblasts; parameters: species or system rat; conditions: EUK 100 μM, LA 500 μM
[1] = Body weight and fasting plasma parameters in diabetic and hypercortisolemic rats; format: in vivo, rat
Description: All animal procedures were performed in accordance with the NIH Guidance for the Care and Use of Laboratory Animals. The current study used, respectively the GK and Dexamethasone-treated rats as models for diabetes and hypercortisolemia. Dexamethasone was administered subcutaneously at a dose of 2.5 μg/kg body weight in the morning (8:00 AM) and in the evening (8:00 PM) for a duration of four weeks before wounding and this form of therapy continued during the course of healing. […] Weight and age-matched female Wistar rats (Kuwait University breeding colony) served as the corresponding controls. All of the animals were maintained under standard conditions with 12 hours on/off light cycle, commercial diet, and water ad libitum. GK rats destined for wounding were initially matched with regard to body weight (e.g., 230 to 250 g), and plasma levels of glucose, free fatty acids and insulin. These indices are commonly used to reflect the severity of the diabetic state.
Animals used for IGF-1 sensitivity (n=6/group) and wound healing (n=8) studies were partitioned into five study groups including control, diabetic, hypercortisolemic, diabetic+EUK and hypercortisolemic+EUK. The EUK-134 was administered for duration of four weeks before wound induction and it continued during the course of healing.

[2] = dexamethasone-treated (hypercortisolemic) rats + EUK-134 12.5 mg/kg ip every other day
[3] = diabetic (GK) rats + EUK-134 12.5 mg/kg ip every other day

SMILES: COc1cccc(C=NCCN=Cc2cccc(OC)c2[O-])c1[O-].[Cl-].[Mn+3] [EUK-134]
- inhibition of IGF-1-induced IRS-1 Tyr612 phosphorylation (IRS-1; diabetic fibroblasts or normal fibroblasts exposed to TNF-α or dexamethasone, EUK-134): ameliorates the inhibition of IRS-1 phosphorylation
- common defect in IGF-1 signaling (IRS-1; fibroblasts with diabetic, inflammatory or hypercortisolemia phenotypes, ROS suppressors): correct the common defect in IGF-1 signaling
- Akt phosphorylation in response to IGF-1 (Akt): partially restored
- effect on cell viability (WST-based technique) (cultured fibroblasts): minimum effect on cell viability
- FBG (fasting blood glucose) [1, 2]: 81 ± 12 mg/dL
- FFA (free fatty acid) [1, 2]: 327 ± 16 µM
- FPI (fasting plasma insulin) [1, 2]: 0.58 ± 0.052 ng/mL
- FBG (fasting blood glucose) [1, 3]: 122 ± 18 mg/dL
- FFA (free fatty acid) [1, 3]: 353 ± 18 µM
- FPI (fasting plasma insulin) [1, 3]: 0.66 ± 0.05 ng/mL
- abnormalities regarding lipid and carbohydrate profiles ([1]; diabetic and hypercortisolemic rats, chronic treatment with ROS suppressors): ameliorated
